# “Also recorded” adds a separate entry of the source.
# Experiments:
# RCAR11-ABI2 = test system: T1, RCAR11-ABI2; assay: In vitro phosphatase assay, ABI2 with RCAR11; assay type: biochemical, Arabidopsis thaliana; settings: esterase-treated
# T1 construct: 6xHis (N); made in house; host or cells: Escherichia coli BL21
# Description: Expression, purification, and analysis of RCAR and PP2C proteins were performed essentially as described ([Ruschhaupt et al., 2019]). Briefly, the ABA receptors RCAR1, RACR8, and RCAR11 were expressed with an aminoterminal histidine tag using the pSEVA431_LII_6xHIS::RCAR1/RCAR8/RCAR11. ABA coreceptors were expressed as histidine-tagged fusions with the maltose-binding protein using the pSEVA431_LII_6xHIS::MBP::ABI2/HAB1. All constructs were transformed and expressed in Escherichia coli strain BL21 and purified to homogeneity according to supplier’s instruction (GE Healthcare, Chicago, USA). The receptor assay was performed with 100 nM PP2C and a two-fold molar excess of RCAR. Values are means ± SD of three replicates. […] The maximum inhibition was set to 100% in the figures. The phosphatase activity was measured using 4-methylumbelliferyl-phosphate as a substrate ([Meinhard and Grill, 2001]). The increase in fluorescence was recorded over 25 min with excitation and emission wavelengths at 360 and 460 nm, respectively, using a Synergy 2 plate reader (Bio-Tec, Winooski, USA).
# Arabidopsis plants = assay: Foliar administration and thermal imaging of leaf temperature (transpiration), Arabidopsis; assay type: in vivo, Arabidopsis thaliana; settings: for Leaf temperature increase, activity compared to ABA: 10, 30, 100 µM, one day after application
# Description: (§1) Thermal imaging was carried out as described ([Yang et al., 2016]). An assessment of the efficacy of ABA and CCPs was conducted by using 35-day-old Arabidopsis and 30-day-old wheat plants. Stock solutions (10 mM) of CCPs and ABA dissolved in dimethyl sulfoxide (DMSO) were diluted to the respective ligand concentrations (10, 30, 100 µM) in water containing 0.01% (v/v) Tween 20. Aqueous Tween 20 solutions supplemented with 0.1%, 0.3%, and 1% DMSO served for mock treatments. The solutions were sprayed onto the leaf surface until the run-off of droplets. One day after application (unless otherwise indicated), thermal imaging was conducted using the InfraTec instrument (IR-TCM 384, InfraTec, Dresden, Germany). The leaf temperature of Arabidopsis was determined as the average temperature of all leaves. The leaf temperature of wheat was determined as described ([Yang et al., 2019]).
# wheat plants = assay: Foliar administration and thermal imaging of leaf temperature, wheat; assay type: in vivo, Triticum aestivum; settings: 100 μM, 24 h after administration
# Description: as §1
# [1] = test system: Arabidopsis aba2-1 protoplasts; assay: Transient ABA response in Arabidopsis protoplasts (pRD29B::LUC, RCAR11 and ABI2 effectors); assay type: cell-based, Arabidopsis thaliana
# Description: Preparation of Arabidopsis protoplasts, transfection of the effector DNA, and analysis of LUC activity were performed as described ([Tischer et al., 2017]). In essence, 10^5 mesophyll protoplasts from leaves of the ABA deficient mutant aba2-1 ([Schwartz et al., 1997]) were transfected with 4 µg DNA of the pRD29B::LUC construct as an ABA-responsive reporter and 3 µg of p35S::GUS (β-glucuronidase reporter gene) expression cassette as an internal control for normalization. In addition, 3 µg p35S::RCAR11 or the empty vector with the same expression cassette were co-expressed with 0.1 µg p35S::ABI2 effector constructs ([Tischer et al., 2017]), and the ligand-dependent induction of ABA-responsive reporter expression were assessed after incubation at 22°C. The expression of LUC and GUS was determined 18 h after transfection and ligand administration.
# LC-MS log p = assay type: physicochemical
# Description: Cyano cyclopropyl ABA analogs were provided by Bayer (Division Crop Science, Höchst, Germany). All CCPs, except CCP8, were synthesized as described ([Frackenpohl et al., 2018]). For the synthesis of CCP8, ethyl-(2Z)-6-(1-cyanocyclopropyl)-3-ethyl-6-hydroxy-7-methyloct-2-en-4-ynoate, copper (I) iodide (7 mg, […]) and bis (triphenylphosphine) palladium (II) chloride (19 mg, 0.03 mmol) were charged under argon, and toluene (3 mL) together with ethyl (2Z)-3-iodopent-2-enoate (233 mg, 0.9 mmol; column chromatography purification of a crude product as described by [Frackenpohl et al., 2018]) were added at room temperature. After stirring for 10 min, 1-(3-hydroxy-4-methylpent-1-yn-3-yl) cyclopropanecarbonitrile (150 mg, 0.9 mmol; synthesis as describe by [Frackenpohl et al., 2018]) dissolved in toluene (3 mL) and diisopropylamine (0.4 mL, 2.8 mmol) were added. The resulting reaction mixture was stirred for 3 h prior to addition of water. The aqueous phase was extracted repeatedly with dichloromethane. The combined organic phases were dried over magnesium sulphate, filtered, and concentrated under reduced pressure. […]
# [2] = molecular target: ABI2 (Arabidopsis thaliana) (UniProt O04719)
# Chain of ABI2 (Arabidopsis thaliana) (O04719 whole entry): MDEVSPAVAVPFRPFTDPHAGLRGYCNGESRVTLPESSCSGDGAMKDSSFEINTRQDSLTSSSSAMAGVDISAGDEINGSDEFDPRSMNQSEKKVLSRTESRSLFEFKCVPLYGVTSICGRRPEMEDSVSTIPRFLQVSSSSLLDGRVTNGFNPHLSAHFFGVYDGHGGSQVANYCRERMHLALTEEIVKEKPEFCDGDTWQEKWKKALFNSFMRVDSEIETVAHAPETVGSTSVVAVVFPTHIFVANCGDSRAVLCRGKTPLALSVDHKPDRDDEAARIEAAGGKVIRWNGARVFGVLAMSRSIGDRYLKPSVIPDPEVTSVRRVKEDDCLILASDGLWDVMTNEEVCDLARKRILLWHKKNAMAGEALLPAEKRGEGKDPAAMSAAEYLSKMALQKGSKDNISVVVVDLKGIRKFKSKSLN
compound,measurement,setting,value
COC(=O)/C=C(\C=C\C(O)(C(C)C)C1(C#N)CC1)C(F)(F)F (stereo not shown) [CCP4],Activity with RCAR11-ABI2 receptor complex compared to ABA,RCAR11-ABI2,slightly lower activity than ABA
same,"Leaf temperature increase, activity compared to ABA",Arabidopsis plants,moderately higher activity compared to ABA
same,"Leaf temperature increase, activity compared to ABA",wheat plants,somewhat less active
COC(=O)/C=C(\C=C\C(O)(C1CC1)C1(C#N)CC1)C(F)(F)F (stereo not shown) [CCP5],Activity with RCAR11-ABI2 receptor complex compared to ABA,RCAR11-ABI2,slightly lower activity than ABA
same,Concentration for half-maximum inhibition of ABI2 relative to ABA,RCAR11-ABI2; approximately 60% conversion into free acid,twofold
same,Induction of ABA signaling compared to ABA,"[1]; aba2-1 protoplasts, 18 h ligand exposure",most active compound
same,Higher induction rates than ABA,[1]; at different ligand concentrations,up to 60%
same,Potency in reducing transpiration compared to ABA,Arabidopsis plants; 10 µM,more potent than 100 µM ABA
same,"Leaf temperature increase, activity compared to ABA",Arabidopsis plants,more efficacious than ABA and even exceeding the efficacy of CCP1 to CCP3
same,Duration of persistent response,Arabidopsis plants; 10 and 30 µM ligand treatment,10 days
same,Potency relative to ABA,Arabidopsis plants; 10 and 30 µM ligand vs 100 µM ABA,more than tenfold; also recorded: more than ten times
same,Duration of effect relative to ABA,Arabidopsis plants; 10 and 30 µM ligand vs ABA,approximately three times
same,Efficiency in minimizing transpiration compared to ABA,Arabidopsis plants; foliar application,by an order of magnitude more efficient than ABA
same,Activity and persistence of minimized transpiration compared to ABA,"Arabidopsis plants; single application 100 µM, recorded for 19 days",more active and persistent than ABA
same,"Leaf temperature increase, activity compared to ABA",wheat plants,somewhat less active
COC(=O)/C=C(\C=C\C(O)(C1CCCC1)C1(C#N)CC1)C(F)(F)F (stereo not shown) [CCP6],Activity with RCAR11-ABI2 receptor complex compared to ABA,RCAR11-ABI2,slightly lower activity than ABA
same,"Leaf temperature increase, activity compared to ABA",Arabidopsis plants,somewhat lower efficacy
"CCOC(=O)/C=C(\C#CC(O)(C(C)C)C1(C#N)CC1)CC (stereo not shown) [CCP8, ethyl-(2Z)-6-(1-cyanocyclopropyl)-3-ethyl-6-hydroxy-7-methyloct-2-en-4-ynoate]",chromatographic logP,LC-MS log p,1.39
RCAR11/PYR1 (from UniProt O49686 1-191) (receptor),"induction of the ABRE-LUC reporter in yeast expressing RCAR11, ABI2, OST1 and ABF2, with 30 µM ABA or CCP1 against mock-treated cells (dose series with ABA, CCP1, CCP2 in Figure 2A)",[2],8 fold
